From patent US8969565B2, “Imidazo[1,2-b]pyridazine-based compounds, compositions comprising them, and methods of their use” (Lexicon Pharmaceuticals, Inc., priority 2012, dated 2015) come the findings set out here.

Some results are limits rather than exact numbers.

In the assay the target is T1, AAK1 (Homo sapiens, UniProt Q2M2I8).
T1 construct: HA; expressed in transfected cells; host or cells: HEK293F
T1 sequence (Q2M2I8 1-863 isoform Q2M2I8-2): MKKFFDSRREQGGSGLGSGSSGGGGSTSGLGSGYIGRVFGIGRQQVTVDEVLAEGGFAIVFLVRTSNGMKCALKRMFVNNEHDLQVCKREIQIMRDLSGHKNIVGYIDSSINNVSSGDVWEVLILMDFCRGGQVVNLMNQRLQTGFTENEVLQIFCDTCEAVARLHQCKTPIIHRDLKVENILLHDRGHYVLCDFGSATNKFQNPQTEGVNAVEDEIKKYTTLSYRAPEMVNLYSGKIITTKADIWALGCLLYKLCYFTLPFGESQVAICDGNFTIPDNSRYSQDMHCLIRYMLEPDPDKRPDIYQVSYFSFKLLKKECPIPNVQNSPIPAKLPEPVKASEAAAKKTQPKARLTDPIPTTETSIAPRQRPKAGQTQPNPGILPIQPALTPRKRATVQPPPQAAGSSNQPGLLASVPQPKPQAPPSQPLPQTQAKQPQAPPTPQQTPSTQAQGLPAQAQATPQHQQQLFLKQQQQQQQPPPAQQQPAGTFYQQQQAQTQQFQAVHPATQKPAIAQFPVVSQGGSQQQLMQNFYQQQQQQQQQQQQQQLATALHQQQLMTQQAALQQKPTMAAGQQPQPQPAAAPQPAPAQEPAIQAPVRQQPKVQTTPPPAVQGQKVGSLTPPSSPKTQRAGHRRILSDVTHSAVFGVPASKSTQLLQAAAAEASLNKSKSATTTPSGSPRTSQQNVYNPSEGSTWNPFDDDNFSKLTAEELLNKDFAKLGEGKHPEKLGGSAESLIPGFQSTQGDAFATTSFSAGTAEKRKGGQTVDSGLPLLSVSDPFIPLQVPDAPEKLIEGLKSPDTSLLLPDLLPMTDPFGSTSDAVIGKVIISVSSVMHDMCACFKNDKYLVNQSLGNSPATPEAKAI
The experiment in a line: HEK281 cell-based assay (phospho-mu2 Western blot in transfected HEK293F cells). The following applies: 3 hours incubation, read-out: CBA IC50. In short, it runs like this: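 After 3 hours at 37° C. with compound (five 3-fold-spaced concentrations, DMEM+0.5% FBS), transiently transfected HEK293F cells expressing full-length human AAK1 and Flag-tagged mu2 were lysed. mu2 phosphorylation was read by anti-phospho-mu2 immunoblot, normalized against total mu2 by anti-Flag blot.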
For orientation: Immunoblotting shows a protein as a band on a membrane.
Turning to `CN(CCNc1ccc2ncc(-c3ccc(C#N)cc3)n2n1)C(=O)CC(C)(C)C` [N-(2-((3-(4-cyanophenyl)imidazo[1,2-b]pyridazin-6-yl)amino)ethyl)-N,3,3-trimethylbutanamide], the IC50 was at most 100 nM. With `CN(CCNc1ccc2ncc(-c3ccc(C#N)cc3)n2n1)C(=O)C(C)(C)C` [N-(2-((3-(4-cyanophenyl)imidazo[1,2-b]pyridazin-6-yl)amino)ethyl)-N-methylpivalamide] the figure was at most 100 nM. With `COc1ncccc1-c1cnc2ccc(NCCOC3CCCC3)nn12` [N-(2-(cyclopentyloxy)ethyl)-3-(2-methoxypyridin-3-yl)imidazo[1,2-b]pyridazin-6-amine] the figure was at most 100 nM; with `Fc1cnccc1-c1cnc2ccc(NCCOC3CCCC3)nn12` [N-(2-(cyclopentyloxy)ethyl)-3-(3-fluoropyridin-4-yl)imidazo[1,2-b]pyridazin-6-amine], at most 100 nM.

As to `COc1cnccc1-c1cnc2ccc(NCCOC3CCCC3)nn12` [N-(2-(cyclopentyloxy)ethyl)-3-(3-methoxypyridin-4-yl)imidazo[1,2-b]pyridazin-6-amine], the concentration for half-maximal inhibition (IC50) is at most 1000 nM.

As for `c1cc(C2CCCN2)ccc1-c1cnc2ccc(NCCOC3CCCC3)nn12` (centres unmarked) [N-(2-(cyclopentyloxy)ethyl)-3-(4-(pyrrolidin-2-yl)phenyl)imidazo[1,2-b]pyridazin-6-amine], the half-maximal inhibitory concentration (IC50) was at most 100 nM.

For the compound `CCN(CC)CCNC(=O)c1ccc(-c2cnc3ccc(NCCOCC(C)C)nn23)cc1` [N-(2-(diethylamino)ethyl)-4-(6-((2-isobutoxyethyl)amino)imidazo[1,2-b]pyridazin-3-yl)benzamide], the IC50 is at most 100 nM. Regarding `CCN(CC)CCNC(=O)c1ccc(-c2cnc3ccc(NCCOC(C)C)nn23)cc1` [N-(2-(diethylamino)ethyl)-4-(6-((2-isopropoxyethyl)amino)imidazo[1,2-b]pyridazin-3-yl)benzamide], the IC50 was at most 100 nM. With `CNCCNC(=O)c1ccc(-c2cnc3ccc(NCCCN(C)C(=O)C(C)(C)C)nn23)cc1` [N-(2-(methylamino)ethyl)-4-(6-((3-(N-methylpivalamido)propyl)amino)imidazo[1,2-b]pyridazin-3-yl)benzamide] the figure was at most 1000 nM. With `COc1cnccc1-c1cnc2ccc(NCCOC(C)(C)C)nn12` [N-(2-(tert-butoxy)ethyl)-3-(3-methoxypyridin-4-yl)imidazo[1,2-b]pyridazin-6-amine] the figure was at most 100 nM; with `CC(C)(C)OCCNc1ccc2ncc(-c3ccc(C4CCCN4)cc3)n2n1` (centres unmarked) [N-(2-(tert-butoxy)ethyl)-3-(4-(pyrrolidin-2-yl)phenyl)imidazo[1,2-b]pyridazin-6-amine], at most 100 nM; with `CC(C)(C)CCNc1ccc2ncc(-c3ccc(C(=O)NCCN)cc3)n2n1` [N-(2-aminoethyl)-4-(6-((3,3-dimethylbutyl)amino)imidazo[1,2-b]pyridazin-3-yl)benzamide], at most 1000 nM.

As to `CC(C)(C)OCCCNc1ccc2ncc(-c3ccc(C(=O)NCCN)cc3)n2n1` [N-(2-aminoethyl)-4-(6-((3-(tert-butoxy)propyl)amino)imidazo[1,2-b]pyridazin-3-yl)benzamide], the IC50 was at most 1000 nM. With `NCCNC(=O)c1ccc(-c2cnc3ccc(NCCCc4ccccc4)nn23)cc1` [N-(2-aminoethyl)-4-(6-((3-phenylpropyl)amino)imidazo[1,2-b]pyridazin-3-yl)benzamide] the figure was at most 1000 nM. With `CCCCNc1ccc2ncc(-c3ccc(C(=O)NCCN)c(F)c3)n2n1` [N-(2-aminoethyl)-4-(6-(butylamino)imidazo[1,2-b]pyridazin-3-yl)-2-fluorobenzamide] the figure was at most 100 nM; with `CCCCNc1ccc2ncc(-c3ccc(C(=O)NCCN)c(OC)c3)n2n1` [N-(2-aminoethyl)-4-(6-(butylamino)imidazo[1,2-b]pyridazin-3-yl)-2-methoxybenzamide], at most 1000 nM; with `CCCCNc1ccc2ncc(-c3ccc(C(=O)NCCN)cc3F)n2n1` [N-(2-aminoethyl)-4-(6-(butylamino)imidazo[1,2-b]pyridazin-3-yl)-3-fluorobenzamide], at most 1000 nM.

In general, IC50 refers to the concentration that inhibits the measured activity by half.
